Reference: paper PMC7966211, “Cooperativity of membrane-protein and protein–protein interactions control membrane remodeling by epsin 1 and affects clathrin-mediated endocytosis” (Cellular and Molecular Life Sciences: CMLS, 2020)

Key:
[1] = biological target: T1, ENTH domain of epsin1 (ENTH^WT; Rat Epsin1 WT ENTH 1–164) (Rattus norvegicus, UniProt O88339); assay: LUV co-sedimentation with SDS-PAGE, electron microscopy, DLS: partial restoration of oligomerization and membrane remodeling; type: biochemical; conditions: 4 times molar excess of L-SOP to ENTH; PS-free PC/PE/PI(4,5)P2 (65:30:5) LUVs; effect on oligomerization, binding not measured directly
T1 construct: gene Epn1; ENTH domain residues 1-164, pGEX-6P-2, expressed in E. coli BL21(DE3), GST tag cleaved with PreScission protease
T1 sequence (O88339 1-164): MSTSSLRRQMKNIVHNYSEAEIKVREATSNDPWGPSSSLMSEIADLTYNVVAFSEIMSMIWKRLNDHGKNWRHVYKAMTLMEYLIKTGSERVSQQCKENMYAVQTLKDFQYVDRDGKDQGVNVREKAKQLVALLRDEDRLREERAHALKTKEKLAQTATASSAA

[2] = biological target: T2, ENTH domain of epsin1 (ENTH^WT; Rat Epsin1 WT ENTH 1–164) (Rattus norvegicus, UniProt O88339, R114A); assay: reflectometric interference spectroscopy (RIfS), Langmuir adsorption isotherm; type: binding; conditions: PI(4,5)P2 in supported POPC/PI(4,5)P2 (95:5) bilayer without PS; PBS pH 7.4; apparent membrane dissociation constant in protein concentration
T2 construct: gene Epn1; ENTH domain residues 1-164, pGEX-6P-2, expressed in E. coli BL21(DE3), GST tag cleaved with PreScission protease
T2 sequence (O88339 1-164 R114A): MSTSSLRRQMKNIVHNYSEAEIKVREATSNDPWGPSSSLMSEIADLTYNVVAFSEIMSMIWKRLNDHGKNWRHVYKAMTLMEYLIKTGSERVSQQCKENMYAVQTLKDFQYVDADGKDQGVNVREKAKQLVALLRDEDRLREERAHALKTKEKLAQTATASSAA
Excerpt: (§1) reflectometric interference spectroscopy (RIfS), Langmuir adsorption isotherm on ENTH domain of epsin1 (ENTH^WT; Rat Epsin1 WT ENTH 1–164)

[3] = biological target: T1, ENTH domain of epsin1 (ENTH^WT; Rat Epsin1 WT ENTH 1–164); assay: as above; type: binding; conditions: PI(4,5)P2 in supported POPC/PI(4,5)P2 (95:5) bilayer without PS; PBS pH 7.4; apparent membrane dissociation constant in protein concentration
Excerpt: as §1

[4] = biological target: the molecule itself; assay: SDS-resistant oligomers on SDS-PAGE after liposome co-sedimentation; 20 µM protein with 2 mg/ml LUVs that contain PS (Folch + PI(4,5)P2, or PC/PE/PS/PI(4,5)P2 with 5-20% PS), 3 h 30 °C, HEPES buffer, 205,000 x g, pellet and supernatant on SDS-PAGE; self-association on membranes
[5] = biological target: the molecule itself; assay: FRET or BRET; Atto488-labeled (donor) and Atto532-labeled (acceptor) ENTH domains, total 5 and 15 µM, in 2 mg/ml LUV suspension; LUVs PC/PE/PS/PI(4,5)P2 (45:30:20:5) compared with PS-free PC/PE/PI(4,5)P2 (65:30:5), on which the wild type gave reduced FRET; excitation 493 nm

Molecule: N[C@@H](COP(=O)(O)O)C(=O)O [L-SOP]
- LUV co-sedimentation with SDS-PAGE, electron microscopy, DLS: partial restoratio [1]: presence of the PS headgroup was sufficient to partially restore oligomerization and membrane remodeling

Molecule: PI(4,5)P2
- Kd [2]: 2900 ± 800 nM
- Kd [3]: 1000 ± 200 nM

B1: Rat Epsin1 WT ENTH 1-164 (domain or fragment, UniProt O88339 1-164, looked up)
chain: MSTSSLRRQMKNIVHNYSEAEIKVREATSNDPWGPSSSLMSEIADLTYNVVAFSEIMSMIWKRLNDHGKNWRHVYKAMTLMEYLIKTGSERVSQQCKENMYAVQTLKDFQYVDRDGKDQGVNVREKAKQLVALLRDEDRLREERAHALKTKEKLAQTATASSAA
notes: Epsin 1, rat, ENTH (epsin N-terminal homology) domain, residues 1-164; Expressed from pGEX-6P-2; also called ENTH domain; ENTH^WT; source: E. coli BL21(DE3), purified (GSTrap, GST cleaved with PreScission Protease, anion exchange, SEC)
- binding result [4]: binds

B2: ENTH WT (C96A A155C), fluorescently labeled (domain or fragment, rat, UniProt O88339 1-164, looked up)
chain: MSTSSLRRQMKNIVHNYSEAEIKVREATSNDPWGPSSSLMSEIADLTYNVVAFSEIMSMIWKRLNDHGKNWRHVYKAMTLMEYLIKTGSERVSQQAKENMYAVQTLKDFQYVDRDGKDQGVNVREKAKQLVALLRDEDRLREERAHALKTKEKLCQTATASSAA
modifications: Atto488 maleimide (donor population) or Atto532 maleimide (acceptor population) by cysteine modification
notes: Epsin 1, rat, ENTH domain, residues 1-164, with C96A and A155C for labeling; Two populations of the same construct, one with Atto488 and one with Atto532, were mixed for FRET; also called ENTH-Atto-488; ENTH-Atto-532; source: E. coli BL21(DE3), purified (GSTrap, GST cleaved with PreScission Protease, anion exchange, SEC), then labeled
- binding result [5]: binds
